Four molecules from patent publication US20120009280A1, “METHOD OF REDUCING THE RATE OF DEGRADATION OF A BIOLOGICAL MATERIAL” (Bio-Energy Ingredients Limited, priority 2009, published 2012) can be followed below.

Some results are limits rather than exact numbers.

One test has as its system total micro-organism. As to the kind of experiment: Total microbial (plate) count of spent brewer's / wet distiller's grains stored at ambient temperature. Particulars: for preservation time with total microbial counts <10 cfu/g / preservation time with total microbial counts <100 cfu/g / preservation time with total microbial counts <1000 cfu/g: distiller's grains not de-watered, Examples 16-18; for preservation effect period: Example 18; for total microbial count: powder 10% (w/w). Details: total microbial count: unit: cfu/gram. It counts as cell-based.
Text: Samples of spent brewer's grains were drawn from the discharge line of a brewery in South Africa. The samples, packed in dry ice in a cold box, were transported over a distance of approximately 40 kilometres to a laboratory. At the laboratory, the samples were thoroughly mixed and initially split into a first portion (Portion 1) and a second portion (Portion 2). The second portion was about twice the size of the first. Portion 1 was left untreated. Material produced from Portion 1 and Portion 2 is designated below using the code “AR” (as received).
Portion 2 was placed on a clean, standard, laboratory screen deck with 1.4 mm apertures supported from below. As much water as possible was manually squeezed out with a clean flat plastic disc and the sample was then manually remixed after the squeezing. The squeezed material was then split into a third portion (Portion 3) and a fourth portion (Portion 4) of approximately the same size. Material produced from Portion 3 and Portion 4 is designated below using the code “SO” (squeezed).
Portion 4 was added to a high speed kitchen food-shredder and shredded for about two minutes. The shredded material was then returned to the 1.4 mm aperture screen and squeezed again, as described above, and manually remixed again after the second squeezing to produce a shredded and squeezed portion (Portion 5). Material produced from Portion 5 is designated below using the code “SH” (shredded).
(§1) Samples of Portion 1 (“AR”), Portion 3 (“SO”) and Portion 5 (“SH”) were then delivered to a microbiological testing facility about 15 kilometres from the treatment laboratory. Each was tested for initial total microbial, yeast and mould counts, respectively.
(§2) Separate untreated samples were similarly stored under insect-proof screens at ambient temperature for seven days (as shown in Tables 1 and 2). During the trial period the ambient temperature ranged from 11 to 33 degrees C.
After exposure to the environment for seven days, all of the samples were tested at a South African National Accreditation System (SANAS) approved microbiological testing facility. Each was tested for total micro-organism, yeast and mould counts to determine the affect of the various treatments.
Samples of spent brewer's grains were drawn from the discharge line of a brewery in South Africa.
(§3) At the laboratory, the samples were thoroughly mixed and initially split into a first portion (Portion 1) and a second portion (Portion 2). Portion 1 was left untreated. A sample of Portion 1, was delivered immediately to a microbiological testing facility about 15 kilometres away from the treatment laboratory and was tested for initial total microbial, yeast and mould counts, respectively.
Samples from Portion 2 were subjected to treatment with varying amounts of a powdered, commercially-available calcium oxide containing approximately 94% calcium oxide (CaO) as shown in Table 32. The treatments varied from 2.5 to 10% (w/w) calcium oxide addition. The samples were stored in batches (according to the calcium oxide treatment) under insect-proof screens at ambient temperature for fifty six days. […] During the trial period the ambient temperature ranged from 10 to 30 degrees C. As this period was the southern hemisphere spring/early summer, the humidity as well as ambient temperatures varied widely.
(§4) Samples from each treatment were drawn every seven days. No further calcium oxide treatment or agitation took place after the initial mix. In each case the entire sample was isolated and delivered to the microbiological testing facility.
(§5) In this trial the same source of wet distiller's grains (again with now partial water removal prior to treatment) was treated.
as §5

The subject of a further test is yeast. Kind of test: Yeast count of spent brewer's / wet distiller's grains stored at ambient temperature. It counts as cell-based. As to the method: as §1, §2
The free moisture content on the initial spent brewer's grains was determined to be 78.1% m/m. After exposure to the environment for seven days, all of the samples were tested at a South African National Accreditation System (SANAS) approved microbiological testing facility. Each was tested for total micro-organism, yeast and mould counts to determine the affect of the various treatments. A similar procedure to that described in K. A. Rosentrater et al, Food Bioprocess Technol (2008) was used for the microbiological evaluation.
as §3, with “respectively. No water removal prior to treatment was done in this experiment as was the case in Example 8 wherein a similar wet material was partially dewatered by pressing and the residue treated with 10% (w/w/) calcium oxide.” for “respectively.”
Samples from Portion 2 were subjected to treatment with varying amounts of a powdered, commercially-available calcium oxide containing approximately 94% calcium oxide (CaO) as shown in Table 32. The treatments varied from 2.5 to 10% (w/w) calcium oxide addition. The samples were stored in batches (according to the calcium oxide treatment) under insect-proof screens at ambient temperature for fifty six days. Separate untreated samples were similarly stored under insect-proof screens at ambient temperature for a total of 56 days. During the trial period the ambient temperature ranged from 10 to 30 degrees C. As this period was the southern hemisphere spring/early summer, the humidity as well as ambient temperatures varied widely.
The free moisture content on the initial spent brewer's grains was determined to be 79.4% m/m. After exposure to the environment for seven days, all of the samples were tested at a South African National Accreditation System (SANAS) approved microbiological testing facility. Each was tested for total micro-organism, yeast and mould counts to determine the affect of the various treatments. A similar procedure to that described in K. A. Rosentrater et al, Food Bioprocess Technol (2008) was used for the microbiological evaluation.
as §4
The calcium oxide treatment trial described in Example 9 wherein wet distiller's grains were treated with 2.5%, 5% and 10.0% calcium oxide, respectively, versus untreated material was repeated using lower doses of calcium oxide. In this trial the same source of wet distiller's grains (again with now partial water removal prior to treatment) was treated. Also, the same protocol as described in Example 9 was applied, but at lower doses of calcium oxide i.e. 0.5%, 1.0%, 1.5%, 2.0% and 2.5%, respectively, versus untreated material.
In this trial the same source of wet distiller's grains (again with now partial water removal prior to treatment) was treated. Also, the same protocol as described in Example 9 was applied.

Regarding `[Ca+2].[OH-].[OH-]` [(CaOH)2 powder], the Total plate count was 60 cfu/gram in the test with total micro-organism (dose 3.3% (w/w), week 0); 12100 cfu/gram in the test with total micro-organism (dose 3.3% (w/w), week 1); 1750 cfu/gram in the test with total micro-organism (dose 3.3% (w/w), week 4); 20 cfu/gram in the test with total micro-organism (dose 3.3% (w/w), week 5); less than 10 cfu/gram in the test with total micro-organism (dose 3.3% (w/w), week 6); 101000 cfu/gram in the test with total micro-organism (dose 3.3% (w/w), week 7). Further, the Total plate count came to 3.20E+06 cfu/gram in the test on total micro-organism (dose 3.3% (w/w), week 8); 70 cfu/gram in the test with total micro-organism (dose 6.6% (w/w), week 0); 50 cfu/gram in the test with total micro-organism (dose 6.6% (w/w), week 1); 160 cfu/gram with total micro-organism (dose 6.6% (w/w), week 2); 1550 cfu/gram with total micro-organism (dose 6.6% (w/w), week 3); 290 cfu/gram in the test on total micro-organism (dose 6.6% (w/w), week 4). Further, the Total plate count was less than 10 cfu/gram with total micro-organism (dose 6.6% (w/w), week 5); less than 10 cfu/gram in the test with total micro-organism (dose 6.6% (w/w), week 6); 5000 cfu/gram in the test on total micro-organism (dose 6.6% (w/w), week 7); 960000 cfu/gram in the test with total micro-organism (dose 6.6% (w/w), week 8); 1.24E+06 cfu/gram with total micro-organism (dose 6.6% (w/w), week 9). Further, the “Yeast Count” value with yeast (dose 3.3% (w/w), week 8) was less than 10 cfu/gram; with yeast (dose 6.6% (w/w), week 2), less than 10 cfu/gram.
`[Ca+2].[OH-].[OH-]` [calcium hydroxide]: in the test with total micro-organism (dose 3.3% w/w), the “preservation time with total microbial counts <10 cfu/g” value is “≧6 weeks”, the “preservation time with total microbial counts <100 cfu/g” value was “≧6 weeks” and the “preservation time with total microbial counts <1000 cfu/g” value is reported as “≧6 weeks”. Also, in the test with total micro-organism (dose 6.6% w/w), the “preservation time with total microbial counts <10 cfu/g” value is reported as “≧6 weeks”, the “preservation time with total microbial counts <100 cfu/g” value is “≧6 weeks” and the “preservation time with total microbial counts <1000 cfu/g” value was “≧6 weeks”.
In the case of `[Ca+2].[O-]CC(O)CO.[O-]CC(O)CO` [Ca-DGO granules], the Total plate count in the test on total micro-organism (dose 10% (w/w), week 0) was 80 cfu/gram; in the test with total micro-organism (dose 10% (w/w), week 1), 510 cfu/gram; in the test on total micro-organism (dose 10% (w/w), week 2) it was 3500 cfu/gram; in the test on total micro-organism (dose 10% (w/w), week 4), 30 cfu/gram; with total micro-organism (dose 10% (w/w), week 6), 5400 cfu/gram; with total micro-organism (dose 10% (w/w), week 8), 410000 cfu/gram. In addition, the Total plate count with total micro-organism (dose 10% (w/w), week 9) came out at 480000 cfu/gram; in the test on total micro-organism (dose 15% (w/w), week 0) it was 180 cfu/gram; in the test on total micro-organism (dose 15% (w/w), week 1) it was 150 cfu/gram; in the test on total micro-organism (dose 15% (w/w), week 4) it was 70 cfu/gram; in the test with total micro-organism (dose 15% (w/w), week 5), 650 cfu/gram; in the test on total micro-organism (dose 15% (w/w), week 6), 120 cfu/gram. Also, the Total plate count with total micro-organism (dose 15% (w/w), week 7) is listed as 700 cfu/gram; in the test with total micro-organism (dose 15% (w/w), week 8), 270 cfu/gram; in the test with total micro-organism (dose 15% (w/w), week 9), 150 cfu/gram. In addition, the “Yeast Count” value in the test with yeast (dose 10% (w/w), week 3) was less than 10 cfu/gram; in the test with yeast (dose 10% (w/w), week 4) it was less than 10 cfu/gram; with yeast (dose 10% (w/w), week 5) it was 100 cfu/gram; with yeast (dose 10% (w/w), week 6), less than 10 cfu/gram; with yeast (dose 10% (w/w), week 9) it was less than 10 cfu/gram.
Take `[Ca+2].[O-]CC(O)CO.[O-]CC(O)CO` [calcium diglyceroxide]: the Total plate count in the test with total micro-organism (10% Ca-DGO (w/w) granules, week 1) is on record as 11000 cfu/gram; in the test with total micro-organism (10% Ca-DGO (w/w) granules, week 2), less than 10 cfu/gram; in the test with total micro-organism (10% Ca-DGO (w/w) granules, week 3), 540 cfu/gram; in the test on total micro-organism (10% Ca-DGO (w/w) granules, week 4), 60 cfu/gram; in the test on total micro-organism (10% Ca-DGO (w/w) granules, week 5), 650 cfu/gram; in the test on total micro-organism (10% Ca-DGO (w/w) powder, week 1) it was 610 cfu/gram. Besides, the Total plate count in the test with total micro-organism (10% Ca-DGO (w/w) powder, week 2) is given as less than 10 cfu/gram; in the test with total micro-organism (10% Ca-DGO (w/w) powder, week 3) it was 580 cfu/gram; with total micro-organism (10% Ca-DGO (w/w) powder, week 4), 5000 cfu/gram; with total micro-organism (10% Ca-DGO (w/w) powder, week 5), 36000 cfu/gram; in the test with total micro-organism (20% Ca-DGO (w/w) powder, week 1), 80 cfu/gram; in the test on total micro-organism (20% Ca-DGO (w/w) powder, week 2) it was 310 cfu/gram. For the same molecule, the Total plate count was 140 cfu/gram with total micro-organism (20% Ca-DGO (w/w) powder, week 3); 40 cfu/gram with total micro-organism (20% Ca-DGO (w/w) powder, week 4); 10 cfu/gram in the test on total micro-organism (20% Ca-DGO (w/w) powder, week 5); 40 cfu/gram in the test with total micro-organism (40% Ca-DGO (w/w) powder, week 1); 450 cfu/gram in the test on total micro-organism (40% Ca-DGO (w/w) powder, week 2); 103 cfu/gram in the test on total micro-organism (40% Ca-DGO (w/w) powder, week 3). Also, the Total plate count was 10 cfu/gram in the test on total micro-organism (40% Ca-DGO (w/w) powder, week 4) and 10 cfu/gram with total micro-organism (40% Ca-DGO (w/w) powder, week 5). Moreover, the preservation effect period in the test with total micro-organism (granule form 15% (w/w)) and with total micro-organism (powder form 15% (w/w)) was 9 week throughout. Also, the results for the total microbial count in the test with total micro-organism (3 week time point), in the test with total micro-organism (week 4) and in the test with total micro-organism (week 5) were 580, 5,000 and 36,000, respectively.
